{
  "source": "patent US7405309B2",
  "about": "“Pyranone derivatives useful for treating cancer” (Centre National de la Recherche Scientifique (CNRS), priority 2004, dated 2008)",
  "key": {"[1]": {"experiment": "Maximum tolerated dose for a single intravenous injection", "settings": "Swiss Nu/nu (nude), mouse, in vivo, Nude mice, survival and weight monitored up to day 21", "protocol": "The iodomethylene-dimethyl-dihydropyranone (I), as obtained according to Example 1, was injected by the intravenous route (iv) to 4-5 week old Nude mice (Swiss Nu/nu) at the following doses: 50 mg/kg, 66.6 mg/kg, 100 mg/kg, 150 mg/kg and 200 mg/kg."}, "[2]": {"test_system": "HCT116 cells (colorectal carcinoma)", "experiment": "Study of the cell cycle by flow cytometry, HCT116", "type": "cell-based, human", "settings": "significant after 24 hours at 10^−7 M", "protocol": "(§1) The biological activity of iodomethylene-dimethyl-dihydropyranone (I), as obtained according to Example 1, was studied in vitro on five different cell lines: • KB (epidermoid carcinoma of the nasopharynx) • HCT-116 (colorectal carcinoma) • K562 (myeloid leukemia) • K562-MDR1 (myeloid leukemia; resistance to doxorubicin) • MCF7-MDR1 (mammary adenocarcinoma; resistance to doxorubicin)\n(§2) The cells selected for this study were incubated at 37° C. in the presence of iodomethylene-dimethyl-dihydropyranone (I) added to the culture medium at various concentrations. All the experiments carried out made it possible to determine the degree of toxicity of the test compound, its effect on the course of the cell cycle and its capacity to induce cell death by apoptosis.\n(§3) This effect is significant after 24 hours of exposure of the cells to iodomethylene-dimethyl-dihydropyranone (I) used at the concentration 10^−7 M (cf. FIG. 4: effect of (I) on the cell cycle of the leukemia cells K562)."}, "[3]": {"test_system": "K562 cells (myeloid leukemia)", "experiment": "Study of the cell cycle by flow cytometry, K562", "type": "cell-based", "settings": "significant after 24 hours at 10^−7 M", "protocol": "as §1, §2, §3"}, "[4]": {"test_system": "HCT-116 cells (colorectal carcinoma)", "experiment": "Study of cytotoxicity on HCT-116 cells", "type": "cell-based", "settings": "Homo sapiens, 96 hours of incubation, 37° C., read-out: concentration which induces the death of 50% of the cells (IC50)", "protocol": "as §1, §2\n(§4) The cytotoxicity of iodomethylene-dimethyl-dihydropyranone (I) was evaluated on KB and HCT-116 cells."}, "[5]": {"test_system": "MCF7-MDR1 cells (mammary adenocarcinoma; resistance to doxorubicin)", "experiment": "Study of the cell cycle by flow cytometry, MCF7-MDR1", "type": "cell-based", "settings": "significant after 24 hours at 10^−7 M", "protocol": "as §1, §2, §3"}, "[6]": {"test_system": "KB cells (epidermoid carcinoma of the nasopharynx)", "experiment": "Study of cytotoxicity on KB cells", "type": "cell-based", "settings": "Homo sapiens, 96 hours of incubation, 37° C., read-out: concentration which induces the death of 50% of the cells (IC50)", "protocol": "as §1, §2, §4"}, "in vivo": {"experiment": "in vivo", "settings": "Nude, mouse, iv", "protocol": "Having determined the maximum tolerated dose for a single injection, the Nude mice were treated by the intravenous (iv) route with iodomethylene-dimethyl-dihydropyranone (I) injected at three different doses: 50, 70 and 90 mg/kg/injection. Each dose was administered 4 times at 3 day intervals (D0, D3, D6 and D9). The survival of the animals, their weight and clinical signs noted up to day 21 made it possible to establish the value of the maximum tolerated dose for four injections which is at less than 90 mg/kg. The 40, 60 and 80 mg/kg doses were therefore chosen for the evaluation of antitumor activity."}, "[7]": {"test_system": "K562-MDR1 cells (myeloid leukemia; resistance to doxorubicin)", "experiment": "Study of the cell cycle by flow cytometry, K562-MDR1", "type": "cell-based", "settings": "significant after 24 hours at 10^−7 M", "protocol": "as §1, §2, §3"}, "[8]": {"test_system": "K562-MDR1 cells (chemoresistant)", "experiment": "Study of apoptosis, flow cytometry with annexin V / propidium iodide double labeling", "type": "cell-based", "settings": "24 hours, 10^−6 M and 10^−7 M"}, "[9]": {"test_system": "HCT 116 tumor transplanted under the skin", "experiment": "Antitumor activity in Nude mice carrying a transplanted HCT 116 tumor", "type": "in vivo", "protocol": "This antitumor activity of the compounds of the invention was studied on transplanted tumors (such as HCT-116) in Nude mice (nu/nu mice). Nude mice are immunodeficient mice having no thymus.\nThe xenotransplantation of human tumor cells in Nude mice is a model commonly used for the evaluation of the antitumor activity of various molecules.\nThe iodomethylene-dimethyl-dihydropyranone (I) was injected 4 times at 3 day intervals (D0, D3, D6 and D9). Two groups of control animals were formed. The first group received no injection (control), whereas the animals of the second group received injections of the solution which served to solubilize the iodomethylene-dimethyl-dihydropyranone (I) (vehicle).\nThe volume of the tumors (mm^3) was measured with a caliper twice per week."}, "[10]": {"test_system": "K562 cells (myeloid leukemia)", "experiment": "Morphology of treated K562 cells", "type": "cell-based", "settings": "10^−7 M, 24 hours", "protocol": "as §1, §2\nIt should also be emphasized that from 24 hours onwards after the treatment with iodomethylene-dimethyl-dihydropyranone (I) at the dose of 10^−7 M, a change is observed in the morphology of the treated cells."}},
  "data": [
    {"smiles": "CC1(C)OC(=O)C=C/C1=C\\I", "note": "[E-5-iodomethylene-6,6-dimethyl-5,6-dihydropyran-2-one]", "values": [
      {"measurement": "MTD at 21 day", "setting": "[1]", "result": 100, "unit": "mg/kg"},
      {"measurement": "effect on the cell cycle", "setting": "[2]", "result": "blocks cell division in all the lines at the G2/M phase"},
      {"measurement": "effect on the cell cycle", "setting": "[3]", "result": "blocks cell division in all the lines at the G2/M phase"},
      {"measurement": "IC50", "setting": "[4]", "result": "~300", "unit": "nM"},
      {"measurement": "effect on the cell cycle", "setting": "[5]", "result": "blocks cell division in all the lines at the G2/M phase"},
      {"measurement": "IC50", "setting": "[6]", "result": "~450", "unit": "nM"},
      {"measurement": "MTD at 21 day", "setting": "in vivo", "result": "< 90", "unit": "mg/kg"},
      {"measurement": "effect on the cell cycle", "setting": "[7]", "result": "blocks cell division in all the lines at the G2/M phase"},
      {"measurement": "induction of apoptosis (positive annexin V/negative PI cells)", "setting": "[8]", "result": "high induction of apoptosis"},
      {"measurement": "tumor progression (tumor volume growth curves)", "setting": "[9]; 80 mg/kg/injection iv, D0, D3, D6, D9, from the 2nd injection", "result": "significantly inhibits the tumor progression"},
      {"measurement": "percentage T/C (median tumor volume treated/control ×100)", "setting": "[9]; 21 days after the start of the treatments, iv, 4 injections, dose not stated", "result": 53.5, "unit": "%"},
      {"measurement": "change in the morphology of the treated cells", "setting": "[10]", "result": "the cells lose their round forms and become fusiform"}
    ]}
  ]
}
